{
  "source": "paper PMC12434071",
  "about": "“Platinum-group metal half-sandwich complexes of 1-(α-D-glucopyranosyl)-4-hetaryl-1,2,3-triazoles: synthesis, solution equilibrium studies, and investigation of their anticancer and antimicrobial activities” (Frontiers in Chemistry, 2025)",
  "system": "A2780 cells",
  "test": "SRB assay on A2780 cells",
  "assay_type": "cell-based",
  "details": "maximal inhibition; 48 h treatment; maximum concentration 100 µM",
  "description": "For MTT assays, 4 × 10^3 A2780 cells were plated into 96-well plates, and for SRB assays, 1.5 × 10^3 A2780 cells were plated into 96-well plates. Cells were treated with the compounds in the concentrations indicated for either 4 h for an MTT assay or for 48 h for an SRB assay. Data are represented as average ± SD, from four biological replicates, with the exception of the MTT dataset of Ir-2b and the SRB datasets of 2b, Ru/Ir-2b, and Ir-3a, which were derived from three biological replicates. Individual assays were performed in duplicate. Values were normalized for vehicle-treated cells, and the absorbance for vehicle-treated cells equals 1. Data are represented as fold change compared to vehicle-treated controls. Normality was assessed using the D’Agostino–Pearson test. Statistical significance was assessed using a two-way ANOVA test followed by Tukey’s post hoc test. For better visibility, normality, transformations, statistical tests, and p values are presented in an MS Excel sheet at https://figshare.com/s/3a0aa60b66f3f746f41e. Color code: black—free ligand (2a,b or 3a), khaki—ruthenium complex (Ru-2a,b or Ru-3a), green—iridium complex (Ir-2a,b or Ir-3a).  FIGURE 7 The ruthenium, osmium, and iridium complexes of ligands 4a, 4b, and 5a are cytostatic on ovarian cancer models with a good therapeutic index. For SRB assays, 1.5 × 10^3 A2780 cells, 1.5 × 10^3 ID8 cells, or 4 × 10^3 primary fibroblasts were plated into 96-well plates. Cells were treated with the compounds in the concentrations indicated for 48 h. Data are represented as average ± SD, from four biological replicates on A2780 and human primary fibroblasts, except in the case of Os complexes, where experiments were performed in three biological replicates. ID8 cells were assessed in three biological replicates. Individual assays were performed in duplicate. Values were normalized for vehicle-treated cells, and the absorbance for vehicle-treated cells equals 1. Normality was assessed using the D’Agostino–Pearson test. Statistical significance was assessed using a two-way ANOVA test followed by Tukey’s post hoc test. For better visibility, normality, transformations, statistical tests, and p values are presented in an MS Excel sheet at https://figshare.com/s/3a0aa60b66f3f746f41e. Color code: black—free ligand (4a,b or 5a), khaki—ruthenium complex (Ru-4a,b), blue—osmium complex (Os-4a,b or Os-5a), green—iridium complex (Ir-4a,b), and red—rhodium complex (Rh-4a,b). An SRB assay measures protein content of cells in correlation with the cell number in an assay well and can therefore be used to assess cell proliferation or long-term cytostasis ([Skehan et al., 1990]). Cells were seeded into 96-well plates the day before the treatment for the assay. Cells were treated with the various compounds for 48 h. Then, the medium was removed, and cells were fixed with 10% trichloroacetic acid. Fixed cells were washed in distilled water three times, followed by staining with SRB (0.4 m/V% dissolved in 1% acetic acid) for 10 min. Stained cells were washed in 1% acetic acid five times; the acetic acid was removed, and the cells were left to dry. Protein-bound SRB was released by adding 100 µL of 10 mM Tris base. Plates were measured in a plate photometer (Thermo Scientific Multiscan GO spectrophotometer, Waltham, MA, United States) at 540 nm. Certain wells were designated to contain vehicle-treated cells on each plate. […] Statistical analysis was performed using version 8.0.1 of GraphPad Prism. Values were tested for normal distribution using the D’Agostino–Pearson or Shapiro–Wilk normality tests. When necessary, values were log-normalized or normalized using the Box–Cox or two-step normalization method ([Box and Cox, 1964]), as indicated in the MS Excel file listing the values at https://figshare.com/s/3a0aa60b66f3f746f41e. […]",
  "data": [
    {"compound": "OC[C@H]1O[C@H](n2cc(-c3ccccn3)nn2)[C@H](O)[C@@H](O)[C@@H]1O", "note": "[Complex 3a, 1-(α-D-Glucopyranosyl)-4-(pyridin-2-yl)-1,2,3-triazole]", "values": [
      {"measurement": "A2780 SRB max %", "value": 0, "unit": "%"}
    ]},
    {"compound": "O=C(OC[C@H]1O[C@H](n2cc(-c3ccccn3)nn2)[C@H](OC(=O)c2ccccc2)[C@@H](OC(=O)c2ccccc2)[C@@H]1OC(=O)c1ccccc1)c1ccccc1", "note": "[Complex 4a, 1-(2’,3’,4’,6’-Tetra-O-benzoyl-α-D-glucopyranosyl)-4-(pyridin-2-yl)-1,2,3-triazole]", "values": [
      {"measurement": "A2780 SRB max %", "value": 29.51, "unit": "%"}
    ]},
    {"compound": "O=C(OC[C@H]1O[C@H](n2cc(-c3ccc4ccccc4n3)nn2)[C@H](OC(=O)c2ccccc2)[C@@H](OC(=O)c2ccccc2)[C@@H]1OC(=O)c1ccccc1)c1ccccc1", "note": "[Complex 4b, 1-(2’,3’,4’,6’-Tetra-O-benzoyl-α-D-glucopyranosyl)-4-(quinolin-2-yl)-1,2,3-triazole]", "values": [
      {"measurement": "A2780 SRB max %", "value": 0, "unit": "%"}
    ]},
    {"compound": "CCCCC(=O)OC[C@H]1O[C@H](n2cc(-c3ccccn3)nn2)[C@H](OC(=O)CCCC)[C@@H](OC(=O)CCCC)[C@@H]1OC(=O)CCCC", "note": "[Complex 5a, 1-(2’,3’,4’,6’-Tetra-O-pentanoyl-α-D-glucopyranosyl)-4-(pyridin-2-yl)-1,2,3-triazole]", "values": [
      {"measurement": "A2780 SRB max %", "value": 33.92, "unit": "%"}
    ]}
  ]
}
